# ChEMBL document CHEMBL4616699, “Characterization of Specific N-α-Acetyltransferase 50 (Naa50) Inhibitors Identified Using a DNA Encoded Library” (ACS Med Chem Lett, 2020)
# Experiments:
# [1] = Dissociation constant, pKa of compound; format: physicochemical
# [2] = target: T1, N-alpha-acetyltransferase 50 (Homo sapiens, UniProt Q9GZZ1); assay: Binding affinity to full length human N-terminal His-tagged/GST-tagged Naa50 expressed in Escherichia coli BL21(DE3) cells in by SPR analysis
# T1 sequence (Q9GZZ1 whole entry): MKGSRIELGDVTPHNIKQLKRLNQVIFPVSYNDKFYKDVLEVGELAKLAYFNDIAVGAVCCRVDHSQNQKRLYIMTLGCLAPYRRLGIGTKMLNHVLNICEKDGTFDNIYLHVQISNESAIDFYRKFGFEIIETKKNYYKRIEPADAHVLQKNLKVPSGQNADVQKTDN
# [3] = target: T2, N-alpha-acetyltransferase 50 (Homo sapiens) (UniProt Q9GZZ1)
# T2 sequence (whole entry): T1 sequence (Q9GZZ1 whole entry)
# Description: Binding affinity to full length human N-terminal His-tagged/GST-tagged Naa50 expressed in Escherichia coli BL21(DE3) cells assessed as half life for dissociation by SPR analysis
pKa [1],Kd [2] [µM],T1/2 [3] [min],Compound
3.6,–,–,Cc1csc([C@@H]2C[C@H](NC(=O)[C@@H]3CC(=O)N(C)C(=O)N3)CN2C(=O)c2ccc(C(=O)O)cc2)n1
–,0.156,0.4,CC(C)(COP(=O)(O)OP(=O)(O)OC[C@H]1O[C@@H](n2cnc3c(N)ncnc32)[C@H](O)[C@@H]1OP(=O)(O)O)[C@@H](O)C(=O)NCCC(=O)NCCS [COENZYME_A]
–,0.0176,4,CC(=O)SCCNC(=O)CCNC(=O)[C@H](O)C(C)(C)COP(=O)(O)OP(=O)(O)OC[C@H]1O[C@@H](n2cnc3c(N)ncnc32)[C@H](O)[C@@H]1OP(=O)(O)O
4,–,–,CNC(=O)c1csc([C@@H]2C[C@H](NC(=O)[C@@H]3CC(=O)N(C)C(=O)N3)CN2C(=O)c2ccc(-c3nn[nH]n3)cc2)n1
8.9,–,–,Cc1csc([C@@H]2C[C@H](NC(=O)[C@@H]3CC(=O)N(C)C(=O)N3)CN2C(=O)c2ccc(-c3nnc[nH]3)cc2)n1
3.7,–,–,Cc1csc([C@@H]2C[C@H](NC(=O)[C@@H]3CC(=O)N(C)C(=O)N3)CN2C(=O)c2ccc(-c3nn[nH]n3)cc2)n1
